According to ChEMBL document CHEMBL1909046, “DrugMatrix in vitro pharmacology data”:

How the values were obtained:
Melanocortin receptor 4 = Melanocortin receptor 4 (Homo sapiens, UniProt P32245); assay type: cell membranes, Membrane; details: hek293; also: in other assays of this panel Not Active means under 50% inhibition at 10 µM
[1] = DRUGMATRIX: Calcium Channel Type L, Phenylalkylamine radioligand binding (ligand: [3H] (-)-Desmethoxyverapamil (D-888)); assay type: cell membranes, Rattus norvegicus, Wistar, Brain, Membrane; details: Not Active = under 50% inhibition at 10 µM
[2] = DRUGMATRIX: Potassium Channel [KATP] radioligand binding (ligand: [3H] Glyburide); assay type: cell membranes, Membrane; details: hit-t15; Not Active = under 50% inhibition at 10 µM
[3] = target: Matrix metalloproteinase-9 (Homo sapiens, UniProt P14780); assay type: cell-based;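 also: inhibition of isolated MMP-9 enzyme activity toward a synthetic peptide substrate, from the DrugMatrix protease screening panel; in other assays of this panel Not Active means under 50% inhibition at 10 µM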
[4] = target: T1, Cholecystokinin receptor type A (Homo sapiens, UniProt P32238); assay type: cell membranes, Membrane; details: 1321-n1; also: in other assays of this panel Not Active means under 50% inhibition at 10 µM
T1 sequence (P32238 whole entry): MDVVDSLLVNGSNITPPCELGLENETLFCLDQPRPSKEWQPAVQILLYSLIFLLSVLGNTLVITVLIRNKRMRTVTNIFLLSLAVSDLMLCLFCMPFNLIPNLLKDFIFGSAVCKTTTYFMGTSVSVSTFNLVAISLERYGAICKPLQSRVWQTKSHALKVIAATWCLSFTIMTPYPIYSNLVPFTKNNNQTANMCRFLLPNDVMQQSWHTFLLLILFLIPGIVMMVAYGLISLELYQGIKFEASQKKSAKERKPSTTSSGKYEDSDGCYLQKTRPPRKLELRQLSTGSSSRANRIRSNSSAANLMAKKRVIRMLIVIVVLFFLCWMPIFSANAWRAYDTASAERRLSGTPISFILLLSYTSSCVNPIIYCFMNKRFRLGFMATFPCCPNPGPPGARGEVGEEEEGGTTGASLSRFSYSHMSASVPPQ

[5] = target: T2, 5-hydroxytryptamine receptor 2C (Homo sapiens, UniProt P28335); experiment: DRUGMATRIX: Serotonin (5-Hydroxytryptamine) 5-HT2C radioligand binding (ligand: [3H] Mesulergine); assay type: cell membranes, CHO-K1, Membrane; details: Not Active = under 50% inhibition at 10 µM
T2 sequence (P28335 whole entry): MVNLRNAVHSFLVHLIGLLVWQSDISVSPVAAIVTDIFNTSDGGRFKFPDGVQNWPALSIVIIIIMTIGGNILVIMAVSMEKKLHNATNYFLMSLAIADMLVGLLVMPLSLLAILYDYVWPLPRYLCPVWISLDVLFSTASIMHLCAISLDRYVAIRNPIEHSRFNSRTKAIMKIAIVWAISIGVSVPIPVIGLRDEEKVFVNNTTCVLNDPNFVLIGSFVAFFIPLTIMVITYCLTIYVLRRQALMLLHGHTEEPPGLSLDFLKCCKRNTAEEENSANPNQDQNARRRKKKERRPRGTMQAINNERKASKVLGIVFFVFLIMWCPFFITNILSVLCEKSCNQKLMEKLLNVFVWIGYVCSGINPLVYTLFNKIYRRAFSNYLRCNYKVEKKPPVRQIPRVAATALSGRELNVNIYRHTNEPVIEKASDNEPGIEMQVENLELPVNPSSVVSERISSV

[6] = DRUGMATRIX: Interleukin IL-1 radioligand binding (ligand: [125I] interleukin 1beta); assay type: cell membranes, Membrane; details: nih3t3; Not Active = under 50% inhibition at 10 µM
[7] = target: T3, Cysteinyl leukotriene receptor 1 (Homo sapiens, UniProt Q9Y271); assay type: cell membranes, CHO-K1, Membrane; details: cho-k1; also: in other assays of this panel Not Active means under 50% inhibition at 10 µM
T3 sequence (Q9Y271 whole entry): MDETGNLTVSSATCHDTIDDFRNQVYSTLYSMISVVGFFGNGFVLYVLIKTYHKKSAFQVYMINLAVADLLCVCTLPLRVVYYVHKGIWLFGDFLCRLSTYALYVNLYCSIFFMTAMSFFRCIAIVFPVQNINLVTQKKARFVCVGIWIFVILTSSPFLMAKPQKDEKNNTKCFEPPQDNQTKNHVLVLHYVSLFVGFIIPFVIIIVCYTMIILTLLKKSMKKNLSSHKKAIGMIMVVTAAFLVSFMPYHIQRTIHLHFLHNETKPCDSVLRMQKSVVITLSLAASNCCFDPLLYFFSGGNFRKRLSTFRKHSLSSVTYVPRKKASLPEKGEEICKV

Vasopressin V1a receptor = Vasopressin V1a receptor (Homo sapiens, UniProt P37288); assay type: cell membranes, Membrane; details: hek293; also: in other assays of this panel Not Active means under 50% inhibition at 10 µM
[8] = target: Kappa-type opioid receptor (Homo sapiens, UniProt P41145); experiment: DRUGMATRIX: Opiate kappa (OP2, KOP) radioligand binding (ligand: [3H] Diprenorphine); assay type: cell membranes, HEK293, Membrane; details: hek293; Not Active = under 50% inhibition at 10 µM
[9] = DRUGMATRIX: Sigma2 radioligand binding (ligand: [3H] Ifenprodil); assay type: cell membranes, Rattus norvegicus, Wistar, Brain, Membrane; details: Not Active = under 50% inhibition at 10 µM
[10] = target: Mitogen-activated protein kinase 3 (Homo sapiens, UniProt P27361); experiment: DRUGMATRIX: Protein Serine/Threonine Kinase, ERK1 enzyme inhibition (substrate: Myelin Basic Protein); set-up: species or system Escherichia coli; details: Not Active = under 50% inhibition at 10 µM
Cytochrome P450 3A4 = Cytochrome P450 3A4 (Homo sapiens, UniProt P08684); details: bti-tn-5b1-4; also: in other assays of this panel Not Active means under 50% inhibition at 10 µM
Cytochrome P450 3A4, sequence (P08684 whole entry): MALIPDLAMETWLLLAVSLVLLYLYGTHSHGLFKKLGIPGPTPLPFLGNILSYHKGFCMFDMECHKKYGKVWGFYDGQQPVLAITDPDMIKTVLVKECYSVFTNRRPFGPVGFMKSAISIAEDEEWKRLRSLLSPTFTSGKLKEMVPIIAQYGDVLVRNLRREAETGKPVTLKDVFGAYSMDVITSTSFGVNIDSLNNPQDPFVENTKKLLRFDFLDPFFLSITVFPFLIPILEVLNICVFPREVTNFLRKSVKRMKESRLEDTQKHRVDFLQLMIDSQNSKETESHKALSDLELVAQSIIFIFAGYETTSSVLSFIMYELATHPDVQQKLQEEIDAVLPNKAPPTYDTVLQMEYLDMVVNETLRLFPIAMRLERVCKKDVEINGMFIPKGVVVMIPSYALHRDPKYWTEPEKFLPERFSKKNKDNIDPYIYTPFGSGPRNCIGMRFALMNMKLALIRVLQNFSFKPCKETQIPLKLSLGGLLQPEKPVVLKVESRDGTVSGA

Matrix metalloproteinase-9, sequence (P14780 whole entry): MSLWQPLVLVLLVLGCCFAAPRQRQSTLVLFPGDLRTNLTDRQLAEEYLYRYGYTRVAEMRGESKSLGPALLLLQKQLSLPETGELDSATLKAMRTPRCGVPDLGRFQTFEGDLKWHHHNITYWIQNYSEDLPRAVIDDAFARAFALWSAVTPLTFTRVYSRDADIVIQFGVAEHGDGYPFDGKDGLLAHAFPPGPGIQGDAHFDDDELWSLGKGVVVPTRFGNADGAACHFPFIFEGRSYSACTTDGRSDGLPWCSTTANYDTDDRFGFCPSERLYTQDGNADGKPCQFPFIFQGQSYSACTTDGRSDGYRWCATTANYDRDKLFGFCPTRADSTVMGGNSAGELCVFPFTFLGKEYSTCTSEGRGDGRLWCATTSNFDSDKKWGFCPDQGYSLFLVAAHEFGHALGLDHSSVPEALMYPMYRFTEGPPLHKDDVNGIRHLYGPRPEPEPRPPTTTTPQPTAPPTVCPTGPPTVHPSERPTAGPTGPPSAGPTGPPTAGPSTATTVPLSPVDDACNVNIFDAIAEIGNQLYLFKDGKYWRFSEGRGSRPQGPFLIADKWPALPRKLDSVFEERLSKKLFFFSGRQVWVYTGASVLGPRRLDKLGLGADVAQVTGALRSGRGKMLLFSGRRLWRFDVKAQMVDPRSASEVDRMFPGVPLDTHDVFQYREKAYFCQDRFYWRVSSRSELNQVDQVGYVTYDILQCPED
Kappa-type opioid receptor, sequence (P41145 whole entry): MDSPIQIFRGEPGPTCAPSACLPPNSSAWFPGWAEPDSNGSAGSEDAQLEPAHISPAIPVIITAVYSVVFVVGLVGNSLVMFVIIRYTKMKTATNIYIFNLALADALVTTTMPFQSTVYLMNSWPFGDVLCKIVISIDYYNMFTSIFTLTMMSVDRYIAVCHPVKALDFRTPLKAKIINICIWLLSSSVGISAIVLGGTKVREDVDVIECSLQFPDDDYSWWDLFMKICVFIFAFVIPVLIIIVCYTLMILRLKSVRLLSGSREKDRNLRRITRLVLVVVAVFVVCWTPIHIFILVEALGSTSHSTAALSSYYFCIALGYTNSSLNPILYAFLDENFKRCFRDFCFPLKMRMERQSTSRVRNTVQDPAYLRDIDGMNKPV
Mitogen-activated protein kinase 3, sequence (P27361 whole entry): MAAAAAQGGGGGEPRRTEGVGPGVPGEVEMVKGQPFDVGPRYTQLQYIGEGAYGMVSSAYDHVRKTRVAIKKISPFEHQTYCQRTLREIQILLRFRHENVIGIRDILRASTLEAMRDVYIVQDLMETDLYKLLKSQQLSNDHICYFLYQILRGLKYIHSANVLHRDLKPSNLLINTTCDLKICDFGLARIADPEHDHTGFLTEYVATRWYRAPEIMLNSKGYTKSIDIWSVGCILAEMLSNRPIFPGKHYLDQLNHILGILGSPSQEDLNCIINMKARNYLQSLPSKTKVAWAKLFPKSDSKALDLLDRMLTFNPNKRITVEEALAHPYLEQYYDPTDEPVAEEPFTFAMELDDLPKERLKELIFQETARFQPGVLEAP
Vasopressin V1a receptor, sequence (P37288 whole entry): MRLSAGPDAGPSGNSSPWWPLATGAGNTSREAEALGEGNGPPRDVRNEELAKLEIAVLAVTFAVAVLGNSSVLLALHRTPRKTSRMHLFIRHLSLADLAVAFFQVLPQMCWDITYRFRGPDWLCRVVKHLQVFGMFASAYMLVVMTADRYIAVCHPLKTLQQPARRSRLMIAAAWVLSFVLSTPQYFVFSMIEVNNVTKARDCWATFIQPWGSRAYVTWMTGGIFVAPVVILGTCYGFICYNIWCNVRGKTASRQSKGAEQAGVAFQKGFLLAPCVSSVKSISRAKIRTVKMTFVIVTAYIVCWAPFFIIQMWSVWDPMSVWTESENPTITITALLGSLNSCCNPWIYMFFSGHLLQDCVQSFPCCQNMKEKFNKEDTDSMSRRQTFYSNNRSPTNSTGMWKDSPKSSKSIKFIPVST
Melanocortin receptor 4, sequence (P32245 whole entry): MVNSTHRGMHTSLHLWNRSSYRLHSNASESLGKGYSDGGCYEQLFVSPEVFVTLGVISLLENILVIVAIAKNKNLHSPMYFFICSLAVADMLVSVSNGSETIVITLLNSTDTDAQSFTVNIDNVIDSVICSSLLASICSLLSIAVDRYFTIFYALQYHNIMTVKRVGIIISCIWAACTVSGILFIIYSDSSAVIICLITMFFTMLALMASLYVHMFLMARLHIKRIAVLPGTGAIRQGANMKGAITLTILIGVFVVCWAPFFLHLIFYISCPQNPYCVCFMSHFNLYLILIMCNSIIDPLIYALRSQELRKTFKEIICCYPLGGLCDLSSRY

CC(C)NC[C@H](O)COc1cccc2[nH]ccc12
Not Active: IC50 (Melanocortin receptor 4) | IC50 [1] | Ki [1] | IC50 [2] | Ki [2] | IC50 [3] | IC50 [4] | IC50 ([5]; cho-k1) | IC50 [6] | Ki [6] | IC50 [7] | IC50 (Vasopressin V1a receptor) | IC50 [8] | IC50 [9] | Ki [9] | IC50 [10]

c1ccc2c(c1)cc1ccc3cccc4ccc2c1c34
Not Active: IC50 (Melanocortin receptor 4) | IC50 (Cytochrome P450 3A4) | Ki (Cytochrome P450 3A4) | IC50 [1] | Ki [1] | IC50 [2] | Ki [2] | IC50 [3] | IC50 [4] | IC50 ([5]; cho-k1) | IC50 [6] | Ki [6] | IC50 [7] | IC50 (Vasopressin V1a receptor) | IC50 [9] | Ki [9] | IC50 [10]

CCCCCCCCCc1ccc(O)cc1 [4-NONYLPHENOL]
1350 nM: Ki ([5]; read-out: Ki)
2570 nM: IC50 ([5]; read-out: IC50)
Not Active: IC50 (Melanocortin receptor 4) | IC50 (Cytochrome P450 3A4) | Ki (Cytochrome P450 3A4) | IC50 [1] | Ki [1] | IC50 [2] | Ki [2] | IC50 [3] | IC50 [4] | IC50 [6] | Ki [6] | IC50 [7] | IC50 (Vasopressin V1a receptor) | IC50 [9] | Ki [9] | IC50 [10]

COc1ccc2c(c1)c(CC(=O)OCC(=O)O)c(C)n2C(=O)c1ccc(Cl)cc1 [ACEMETACIN]
Not Active: IC50 (Melanocortin receptor 4) | IC50 (Cytochrome P450 3A4) | Ki (Cytochrome P450 3A4) | IC50 [1] | Ki [1] | IC50 [2] | Ki [2] | IC50 [3] | IC50 [4] | IC50 ([5]; cho-k1) | IC50 [6] | Ki [6] | IC50 [7] | IC50 (Vasopressin V1a receptor) | IC50 [8] | IC50 [9] | Ki [9] | IC50 [10]

CCCSc1ccc2nc(NC(=O)OC)[nH]c2c1 [ALBENDAZOLE]
Not Active: IC50 (Melanocortin receptor 4) | IC50 [1] | Ki [1] | IC50 [2] | Ki [2] | IC50 [3] | IC50 [4] | IC50 ([5]; cho-k1) | IC50 [6] | Ki [6] | IC50 [7] | IC50 (Vasopressin V1a receptor) | IC50 [8] | IC50 [9] | Ki [9] | IC50 [10]

Cc1[nH]cnc1CN1CCc2c(c3ccccc3n2C)C1=O [ALOSETRON]
Not Active: IC50 (Melanocortin receptor 4) | IC50 (Cytochrome P450 3A4) | Ki (Cytochrome P450 3A4) | IC50 [1] | Ki [1] | IC50 [2] | Ki [2] | IC50 [3] | IC50 [4] | IC50 ([5]; cho-k1) | IC50 [6] | Ki [6] | IC50 [7] | IC50 (Vasopressin V1a receptor) | IC50 [8] | IC50 [9] | Ki [9] | IC50 [10]

CC1(C)S[C@@H]2[C@H](NC(=O)[C@H](N)c3ccc(O)cc3)C(=O)N2[C@H]1C(=O)O [AMOXICILLIN]
Not Active: IC50 (Melanocortin receptor 4) | IC50 (Cytochrome P450 3A4) | Ki (Cytochrome P450 3A4) | IC50 [1] | Ki [1] | IC50 [3] | IC50 [4] | IC50 ([5]; cho-k1) | IC50 [6] | Ki [6] | IC50 [7] | IC50 (Vasopressin V1a receptor) | IC50 [8] | IC50 [9] | Ki [9] | IC50 [10]

N=C(N)NCCCCNC(=N)N.O=S(=O)(O)O [ARCAINE SULFATE]
Not Active: IC50 (Melanocortin receptor 4) | IC50 (Cytochrome P450 3A4) | Ki (Cytochrome P450 3A4) | IC50 [1] | Ki [1] | IC50 [2] | Ki [2] | IC50 [3] | IC50 [4] | IC50 ([5]; cho-k1) | IC50 [6] | Ki [6] | IC50 [7] | IC50 (Vasopressin V1a receptor) | IC50 [8] | IC50 [9] | Ki [9] | IC50 [10]

COc1ccc([C@@H]2Sc3ccccc3N(CCN(C)C)C(=O)[C@@H]2OC(C)=O)cc1 [DILTIAZEM]
612 nM: Ki ([1]; read-out: Ki)
Not Active: IC50 (Melanocortin receptor 4) | IC50 [2] | Ki [2] | IC50 [3] | IC50 [4] | IC50 ([5]; cho-k1) | IC50 [6] | Ki [6] | IC50 [7] | IC50 (Vasopressin V1a receptor) | IC50 [8] | IC50 [9] | Ki [9] | IC50 [10]
630 nM: IC50 ([1]; read-out: IC50)

O=P1(NCCCl)OCCCN1CCCl (stereo not given) [IFOSFAMIDE]
Not Active: IC50 (Melanocortin receptor 4) | IC50 [1] | Ki [1] | IC50 [2] | Ki [2] | IC50 [3] | IC50 [4] | IC50 ([5]; cho-k1) | IC50 [6] | Ki [6] | IC50 [7] | IC50 (Vasopressin V1a receptor) | IC50 [8] | IC50 [9] | Ki [9] | IC50 [10]

CC1COc2c(N3CCN(C)CC3)c(F)cc3c(=O)c(C(=O)O)cn1c23 (stereo not given) [OFLOXACIN]
Not Active: IC50 (Melanocortin receptor 4) | IC50 [1] | Ki [1] | IC50 [2] | Ki [2] | IC50 [3] | IC50 [4] | IC50 ([5]; cho-k1) | IC50 [6] | Ki [6] | IC50 [7] | IC50 (Vasopressin V1a receptor) | IC50 [8] | IC50 [9] | Ki [9] | IC50 [10]
